From article PMC7911295, “Metabolism of Zearalenone in the Rumen of Dairy Cows with and without Application of a Zearalenone-Degrading Enzyme” (Toxins, 2021)
Like-named read-outs stand apart in the source and are kept apart here.

Assays:
[1] = Feeding trial in rumen-fistulated dairy cows: ZEN and ZEN metabolites in rumen fluid from reticulum, dorsal mat layer and ventral sac; assay type: in vivo, Holstein Friesian cows; conditions: for Traces still detected at (time after administration of ZEN-contaminated concentrate): time point 0 h of the ZEN+ZenA treatment; for Tmax: female, Holstein Friesian, bovine, in vivo, po, 5 mg, read-out: Time of peak concentration post-administration (converted); for Percentage of concentration relative to the sum of ZEN and ZEN metabolite concentrations: reticulorumen; for Time to elimination: ventral sac and reticulum
Source text: (§1) Ruminal metabolism of ZEN with and without supplementation of ZenA was investigated in four rumen-fistulated Holstein Friesian cows (sex: female; age at start: 5.9 ± 1.0 years; body weight at start: 863 ± 65 kg; physiological stage: non-lactating; general health: good, non-gestating; identification procedure: ear tag 4-digit code). The cows were part of the dairy herd of VetFarm (Teaching and Research Farm) of the University of Veterinary Medicine Vienna in Kremesberg, Austria. All procedures related to these experiments were performed according to Austrian law and following the European Guidelines for the Care and Use of Animals for Research Purpose. The animal experiment was approved by ethics and animal welfare commission of the University of Veterinary Medicine, Vienna and the Austrian Federal Ministry of Education, Science and Research (68.205/0156-WF/V/3b/2017, 30.08.2017).
(§2) In our trial setup, each animal was considered an experimental unit (n = 4). Each animal received the same treatment and served as its own control. First, each animal received ZEN-contaminated concentrate feed. Following a 48-h washout period, each animal received ZEN-contaminated concentrate feed supplemented with ZenA. In brief, for acclimatization, on the day prior to the start of the feeding trial, each animal was manually fed 4 × 500 g of control concentrate (Table 4 and Table 5). Thereafter, animals were manually fed (i) 1 × 500 g concentrate contaminated with ZEN and 3 × 500 g control concentrate on experimental day 1 (ZEN treatment), (ii) 4 × 500 g control concentrate on day 2 (ZEN washout), (iii) 1 × 500 g ZEN-contaminated concentrate supplemented with ZenA and 3 × 500 g control concentrate on day 3 (ZEN+ZenA treatment), and (iv) 4 × 500 g control concentrate on day 4 (ZEN+ZenA washout; Table 6). Animals were treated and assessed in the same random order at each experimental time point.
For production of ZEN-contaminated concentrate feed, lyophilizate of ZEN with maltodextrin as a carrier was prepared. To this end, in three parallel preparations, 50 mg ZEN (Fermentek, Jerusalem, Israel) was dissolved in 1 L RO water (pH 12; adjusted with NaOH) using a magnetic stirrer set to 400 rpm and 37 °C for 20 min. Subsequently, 100 g maltodextrin DE19 (Agrana, Vienna, Austria) was added and dissolved by stirring (400 rpm) at room temperature for 10 min. The solution was lyophilized. Lyophilizate was mixed into concentrate feed at an inclusion rate of 2%. The final concentration of ZEN in feed was aimed to be 10 mg/kg and was verified using HPLC-MS/MS analysis as described below. For production of ZEN-contaminated, ZenA-supplemented concentrate, a zearalenone hydrolase ZenA preparation (ZENzyme®; EC 3.1.1.-; BIOMIN Holding GmbH, Getzersdorf, Austria) was mixed into ZEN-contaminated concentrate to achieve an activity of 128 U/kg feed. Same as in the in vitro trial, 1 U of ZenA was defined as the enzyme activity that hydrolyzes 1 μmol ZEN per minute from 15.71 µM ZEN in Teorell Stenhagen buffer adjusted to pH 7.5 containing 0.1 mg/mL bovine serum albumin at 37 °C.
On days 1 and 3 of the trial (ZEN and ZEN+ZenA treatment, respectively), ruminal digesta samples were taken from reticulum, ventral sac and dorsal mat layer (Figure 3) immediately before concentrate feeding (0 h), as well as 15 min, 1 h, 2 h, 4 h, 7 h and 10 h after concentrate feeding (Table 6). On days 2 and 4 of the trial (washout days), ruminal digesta samples were taken immediately before first concentrate feeding (0 h), as well as 10 h after first concentrate feeding (Table 6). Ruminal digesta samples (10 mL) were taken via a rumen fistula from reticulum and ventral sac (10 cm above the bottom of the rumen) using a pump as described previously. Samples were taken from the dorsal mat layer 20 cm below the gas phase and rumen fluid was obtained by manually squeezing the samples as described previously. Samples were mixed 1:2 with acetonitrile by vortexing. […]

[2] = Feeding trial in rumen-fistulated dairy cows: ZEN and ZEN metabolites in feces; assay type: in vivo, Holstein Friesian cows; conditions: feces
Source text: as §1, §2
On days 1 and 3 of the experiment, feces samples were taken from the rectum immediately before concentrate feeding (0 h), as well as 10 h after concentrate feeding (Table 6) and stored at −20 °C. Aliquots (500 mg) of thoroughly homogenized feces samples were extracted for HPLC-MS/MS analysis according to the method described by Binder and coworkers.
HPLC-MS/MS analysis of ZEN, α-ZEL, β-ZEL, HZEN and DHZEN in rumen fluid and feces was performed as described for the in vitro rumen fermentation experiment (see section “In Vitro Rumen Fermentation Experiment”, subsection “Analysis of ZEN and its Metabolites”), with the following modifications. Chromatographic separation was performed with a flow rate of 0.6 mL/min, a duration of 4 min and an injection volume was 1 µL. The gradient started at 30% B which was held for 0.3 min. Subsequently, the proportion of B was increased to 80% from 0.3 to 2 min, and increased to 100% from 2 to 2.1 min. […] LODs for ZEN, α-ZEL, β-ZEL, HZEN and DHZEN in rumen fluid were 2.83 nmol/L (0.9 µg/L), 2.81 nmol/L (0.9 µg/L), 2.81 nmol/L (0.9 µg/L), 2.68 nmol/L (0.9 µg/L) and 10.27 nmol/L (3 µg/L), respectively. LOQs for ZEN, α-ZEL, β-ZEL, HZEN and DHZEN in rumen fluid were 9.43 nmol/L (3 µg/L), 9.37 nmol/L (3 µg/L), 9.37 nmol/L (3 µg/L), 8.93 nmol/L (3 µg/L) and 30.81 nmol/L (9 µg/L), respectively. LODs for ZEN, α-ZEL, β-ZEL, HZEN and DHZEN in feces were 0.03 nmol/g (8.4 ng/g), 0.03 nmol/g (8.4 ng/g), 0.03 nmol/g (8.4 ng/g), 0.03 nmol/g (8.4 ng/g) and 0.10 nmol/g (28 ng/g), respectively. LOQs for ZEN, α-ZEL, β-ZEL, HZEN and DHZEN in feces were 0.09 nmol/g (28 ng/g), 0.09 nmol/g (28 ng/g), 0.09 nmol/g (28 ng/g), 0.08 nmol/g (28 ng/g) and 0.29 nmol/g (84 ng/g), respectively.

estrogen receptors = tested on: estrogen receptors; set-up: method as in doi:10.2903/j.efsa.2016.4425; conditions: cited from earlier work
[3] = dorsal mat layer, ZEN treatment
[4] = ZEN treatment, 15 min after feeding, from median of 3 locations
[5] = reticulum and ventral sac, ZEN treatment
[6] = ZEN+ZenA treatment, 0 h (48 h after ZEN treatment)

Row | Structure (SMILES) | Low concentrations still detected at (time after concentrate feeding) [1, 3] | Traces still detected at (time after administration of ZEN-contaminated concentrate) ([1]; dorsal mat layer) | Percentage of concentration relative to the sum of ZEN and ZEN metabolite concentrations [1, 4] | Percentage of concentration relative to the sum of ZEN and ZEN metabolite concentrations ([1]; ZEN treatment, 1 h) | Percentage of concentration relative to the sum of ZEN and ZEN metabolite concentrations ([1]; ZEN treatment, 4 h) | Percentage of concentration relative to the sum of ZEN and ZEN metabolite concentrations ([1]; ZEN treatment, 7 h) | Percentage of concentration relative to the sum of ZEN and ZEN metabolite concentrations ([1]; ZEN treatment, 10 h) | Percentage of concentration relative to the sum of ZEN and ZEN metabolite concentrations ([1]; ZEN treatment, 24 h) | Percentage of concentration relative to the sum of ZEN and ZEN metabolite concentrations ([1]; ZEN+ZenA treatment, 15 min) | Percentage of concentration relative to the sum of ZEN and ZEN metabolite concentrations ([1]; ZEN+ZenA treatment, 1 h) | Percentage of concentration relative to the sum of ZEN and ZEN metabolite concentrations ([1]; ZEN+ZenA treatment, 4 h) | Percentage of concentration relative to the sum of ZEN and ZEN metabolite concentrations ([1]; ZEN+ZenA treatment, 7 h) | Percentage of concentration relative to the sum of ZEN and ZEN metabolite concentrations ([1]; ZEN+ZenA treatment, 10 h) | Detected up until (time after concentrate feeding) [1, 5] | Time to elimination ([1]; ZEN treatment) | Percentage of concentration relative to the sum of ZEN and ZEN metabolite concentrations ([2]; ZEN treatment, 10 h) | Percentage of concentration relative to the sum of ZEN and ZEN metabolite concentrations [2, 6] | Percentage of concentration relative to the sum of ZEN and ZEN metabolite concentrations ([2]; ZEN+ZenA treatment, 10 h) | Estrogenic potency relative to ZEN (estrogen receptors) | other results
1 | C[C@H]1CCCC(=O)CCC/C=C/c2cc(O)cc(O)c2C(=O)O1 [ZEN, zearalenone] | 34 h | 48 h | 100.0% | 84.8% | 84.1% | 78.7% | 74.4% | 50.2% | 5.9% | 0.0 (traces) % | 0.0 (traces) % | 0.0 (traces) % | 0.0 (traces) % | 24 h | ≤ 34 h | 11.0% | 15.6% | 0.0 (traces) % | – | Tmax [1, 3]: 1 h; Tmax ([1]; reticulum, ZEN treatment (5 mg ZEN oral)): 0.25 h; Tmax ([1]; ventral sac, ZEN treatment): 1 h
2 | C[C@H]1CCC[C@@H](O)CCC/C=C/c2cc(O)cc(O)c2C(=O)O1 [β-ZEL, β-zearalenol] | – | – | 0.0 (traces) % | 7.6% | 0.0 (traces) % | 0.0 (traces) % | 0.0% | 0.0% | 0.0% | 0.0% | 0.0% | 0.0% | 0.0% | – | ≤ 34 h | 78.1% | 69.0% | 59.1% | 0.2 times | Detection in rumen fluid ([1]; any reticulorumen location, ZEN+ZenA treatment): not detected; Period of detection at low concentrations [1, 3]: 1 to 7 h; Time of detection at low concentrations ([1]; ventral sac, ZEN treatment): 1 h
3 | C[C@H]1CCC[C@H](O)CCC/C=C/c2cc(O)cc(O)c2C(=O)O1 [α-ZEL, α-zearalenol] | 34 h | 48 h | 0.0 (traces) % | 7.6% | 15.9% | 21.3% | 25.6% | 49.8% | 0.0 (traces) % | 0.0% | 0.0% | 0.0% | 0.0 (traces) % | 24 h | ≤ 34 h | 10.9% | 15.5% | 9.0% | 60 times | First detected (time after concentrate feeding) [1, 3]: 1 h; First detected (time after concentrate feeding) [1, 5]: 0.25 h; Detection in rumen fluid ([1]; ventral sac, ZEN+ZenA treatment): not detected
